The results in this text go back to patent US20250326725A1, “PI4-Kinase Inhibitors and Methods of Using the Same” (The Board of Trustees of the Leland Stanford Junior …, priority 2019, published 2025).

One data set relates to HCV. Nature of the data set: Anti-HCV assay (EC50). The data set is classed as cell-based. Conditions: Hepatitis C virus, read-out: HCV EC50. On the procedure:
Anti-HCV assay: Anti-HCV assays are performed as described by Cho et al. “Identification of a class of HCV inhibitors directed against the nonstructural protein NS4B.” Sci. Transl. Med. 2011; 2(15):15ra6.

The next data set deals with EV71. Description: EV71 antiviral assay (EC50). The data set is classed as cell-based, Enterovirus 71. The conditions noted are these: Enterovirus A, EV71.
The subject of another data set is EV68. Description: EV68 antiviral assay (EC50). The data set is classed as cell-based.
Data set [1] can be described thus: Cell toxicity (CC50) in HRV assay. Conditions: human, HRV CC50.
Data set [2] in a line: Cell toxicity (CC50) in EV71 assay. Conditions: EV71 CC50.
Data set [3] can be described thus: Cell toxicity (CC50) in EV68 assay. The conditions noted are these: EV68 CC50.

Turning to `COc1ccc(-c2sc(NC(C)(C)C3CCOCC3)nc2C)cc1S(=O)(=O)Nc1cccnc1C(F)(F)F` [Compound S-15], the EC50 (commonly the concentration giving half of the maximal effect) came out at 82 nM in the data set on HCV, 65.3 nM in the data set with EV71 and 335 nM in the data set on EV68. For the same compound, the figures for the CC50 in data set [1], in data set [2] and in data set [3] were 100000 nM, 100000 nM and 63700 nM, respectively.

With `COc1ccc(-c2sc(NC(C)(C)c3ccncc3)nc2C)cc1S(=O)(=O)Nc1c(C)cccc1F` [Compound S-37], the EC50 in the data set on HCV worked out at 0.1 nM; with EV71, 0.1 nM; in the data set on EV68, 0.5 nM. For the same compound, the CC50 (as a rule, the concentration that lowers cell viability or growth by half) came to 4390 nM in data set [1], 21800 nM in data set [2] and 3880 nM in data set [3].

For the compound `COc1ccc(-c2sc(NC(C)(C)C3CCN(C(C)=O)CC3)nc2C)cc1S(=O)(=O)Nc1cccnc1C` [Compound S-21], the values for the EC50 in the data set with HCV, with EV71 and in the data set on EV68 were 2.4 nM, 3.1 nM and 10.7 nM, respectively. Further, the figures for the CC50 in data set [1], in data set [2] and in data set [3] were 87600 nM, 91300 nM and 94800 nM, respectively.

Regarding `COc1ccc(-c2sc(NC(C)(C)C3CCN(C(C)=O)CC3)nc2C)cc1S(=O)(=O)Nc1ccc(F)cc1Cl` [Compound S-51], the EC50 in the data set on HCV turned out to be 1.5 nM; with EV71, 1.3 nM; with EV68, 11.5 nM. The CC50 was 52700 nM in data set [1], 62100 nM in data set [2] and 37000 nM in data set [3].

In the case of `COc1ccc(-c2sc(NC(C)(C)C3CCOCC3)nc2C)cc1S(=O)(=O)Nc1cccc2[nH]cc(Br)c12` [Compound S-27], the EC50 was determined as 2.3 nM in the data set on HCV, 3.6 nM in the data set with EV71 and 5.9 nM in the data set with EV68. Moreover, the CC50 in data set [1] worked out at 1410 nM; in data set [2] it was 6230 nM; in data set [3] it was 1760 nM.

As to `COc1ccc(-c2sc(NC34CC(C3)C4)nc2C)cc1S(=O)(=O)Nc1c(C)cccc1F` [Compound S-55], the EC50 with HCV was found to be 1 nM; with EV71 it was 1.8 nM; with EV68, 6.8 nM. Further, the CC50 in data set [1] came to 19400 nM; in data set [2] it was 100000 nM; in data set [3], 22100 nM.

As for `COc1ccc(-c2sc(NC(C)(C)C3CCOCC3)nc2C)cc1S(=O)(=O)Nc1c(F)cccc1C(F)F` [Compound S-31], the EC50 came to 0.5 nM with HCV, 0.2 nM with EV71 and 0.8 nM with EV68. Moreover, the values for the CC50 in data set [1], in data set [2] and in data set [3] were 52300 nM, 70600 nM and 61800 nM, respectively.

In the case of `COc1ccc(-c2sc(NC(C)(C)C3CCOCC3)nc2C)cc1S(=O)(=O)Nc1ccc(F)cc1C` [Compound S-8], the figures for the concentration for a half-maximal effect (EC50) in the data set on HCV and in the data set on EV71 were 0.8 nM and 0.3 nM, respectively. Besides, the CC50 amounted to 8470 nM in data set [1] and 91900 nM in data set [2].

For the compound `COc1ccc(-c2oc(NC(C)(C)c3ccccc3)nc2C)cc1S(=O)(=O)Nc1c(C)cccc1F` [Compound S-65], the values for the EC50 in the data set with HCV, in the data set with EV71 and in the data set with EV68 were 1.8 nM, 2.7 nM and 2.4 nM, respectively. The figures for the 50% cytotoxic concentration (CC50) in data set [1], in data set [2] and in data set [3] were 46300 nM, 31300 nM and 1700 nM, respectively.

Take `COc1ccc(-c2sc(NC(C)(C)c3ccncc3)nc2C)cc1S(=O)(=O)Nc1ccncc1C` [Compound S-49]: the EC50 with HCV turned out to be 10 nM; in the data set with EV71, 1 nM; in the data set with EV68 it was 50.7 nM. Also, the CC50 in data set [1] stood at 66300 nM; in data set [2], 29500 nM; in data set [3], 71400 nM.

On to `COc1ccc(-c2sc(NC(C)(C)c3ccccc3)nc2C)cc1S(=O)(=O)NC1CCN(C=O)CC1` [Compound S-43], for which the EC50 in the data set on HCV was 2.1 nM; in the data set on EV71 it was 0.3 nM; in the data set with EV68 it was 5.1 nM. Further, the CC50 in data set [1] is 100000 nM; in data set [2] it was 17500 nM; in data set [3], 100000 nM.

Take `COc1ccc(-c2sc(NC(C)(C)C3CCOCC3)nc2C)cc1S(=O)(=O)Nc1ccncc1C(F)(F)F` [Compound S-26]: the EC50 with HCV was 18.1 nM; in the data set with EV71 it was 2.3 nM; with EV68, 1410 nM. The CC50 in data set [1] came out at 38700 nM; in data set [2], 88700 nM; in data set [3] it was 39100 nM.

As for `COc1ccc(-c2sc(NC(C)(C)C3CCOCC3)nc2C)cc1S(=O)(=O)Nc1c(F)cccc1CO` [Compound S-22], the EC50 turned out to be 2.7 nM in the data set on HCV, 0.8 nM with EV71 and 4.8 nM in the data set with EV68. Also, the CC50 in data set [1] was determined as 15500 nM; in data set [2], 16500 nM; in data set [3], 19300 nM.

As for `COc1ccc(-c2oc(NC(C)(C)c3ccccn3)nc2C)cc1S(=O)(=O)Nc1ccncc1C` [Compound S-47], the EC50 in the data set with HCV amounted to 9.6 nM; in the data set on EV71 it was 1.2 nM; in the data set on EV68, 27.6 nM. The CC50 in data set [1] stood at 49500 nM; in data set [2], 21100 nM; in data set [3], 49100 nM.

As for `COc1ccc(-c2sc(NC(C)(C)C3CCOCC3)nc2C)cc1S(=O)(=O)Nc1ccc(F)cc1C(F)F` [Compound S-30], the EC50 is 11.2 nM in the data set with HCV, 2.2 nM in the data set with EV71 and 59.2 nM in the data set on EV68. The CC50 turned out to be 3790 nM in data set [1], 20200 nM in data set [2] and 6450 nM in data set [3].

As to `COc1ccc(-c2sc(NC(C)(C)C3CCOCC3)nc2C)cc1S(=O)(=O)Nc1ccc(Br)nc1F` [Compound S-2], the EC50 is 2.3 nM in the data set with HCV and 0.8 nM in the data set with EV71. The CC50 in data set [1] is 33400 nM; in data set [2] it was 66600 nM.

Consider `COc1ccc(-c2sc(NC3(C4CCOCC4)CC3)nc2C)cc1S(=O)(=O)Nc1cccnc1C` [Compound S-16], for which the EC50 with HCV is 683 nM; with EV71, 568 nM; in the data set with EV68 it was 2100 nM. Moreover, the CC50 was 38300 nM in data set [1], 21200 nM in data set [2] and 39200 nM in data set [3].

With `COc1ccc(-c2sc(NC(C)(C)c3ncccn3)nc2C)cc1S(=O)(=O)Nc1c(C)cccc1F` [Compound S-34], the values for the EC50 with HCV, with EV71 and with EV68 were 1 nM, 1.8 nM and 6.8 nM, respectively. The CC50 in data set [1] is 19400 nM; in data set [2], 100000 nM; in data set [3], 22100 nM.

As for `COc1ccc(-c2oc(NC(C)(C)c3ccccc3)nc2C)cc1S(=O)(=O)Nc1cccnc1C` [Compound S-33], the EC50 in the data set on HCV is 0.1 nM; in the data set with EV71 it was 0.1 nM; with EV68, 0.7 nM. Further, the CC50 in data set [1] was determined as 30500 nM; in data set [2] it was 71300 nM; in data set [3], 5230 nM.

`COc1ccc(-c2sc(NC(C)(C)C3CCOCC3)nc2C)cc1S(=O)(=O)Nc1ccncc1C` [Compound S-50]: the results for the half-maximal effective concentration (EC50) in the data set on HCV, in the data set with EV71 and with EV68 were 7.6 nM, 1.2 nM and 12.8 nM, respectively. For the same compound, the CC50 in data set [1] turned out to be 46600 nM; in data set [2], 38100 nM; in data set [3] it was 37600 nM.

Turning to `COc1ccc(-c2sc(NC(C)(C)C3CCOCC3)nc2C)cc1S(=O)(=O)Nc1cccnc1OC` [Compound S-18], the EC50 was 11.9 nM in the data set with HCV, 4.4 nM in the data set on EV71 and 14 nM with EV68. Moreover, the half-maximal cytotoxic concentration (CC50) in data set [1] came out at 62100 nM; in data set [2], 43200 nM; in data set [3] it was 80000 nM.

In the case of `COc1ccc(-c2sc(NC(C)(C)C3CCOCC3)nc2C)cc1S(=O)(=O)NC1CCC(O)CC1` (stereo not drawn) [Compound S-5], the EC50 with HCV stood at 1.7 nM; in the data set on EV71, 0.8 nM. Moreover, the CC50 in data set [1] is 57000 nM; in data set [2] it was 47200 nM.
